# From ChEMBL document CHEMBL1201862, “PubChem BioAssay data set” (2004)
#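 96-well plates; 48 h exposure; 5 concentrations. Endpoints by linear interpolation between flanking doses. Not reached: highest tested concentration assigned. Here, GI50 denotes the concentration required for 50% inhibition of growth.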 Activity calls are given as the source filed them. No stated cut-off is given here; in the data, active = GI50 up to about 1.1 µM and inactive = higher.
# How the values were obtained:
# Assay in all cases: NCI anticancer screen, dose series, 48 h
# DMS-273 = tested on: DMS-273
# HCT-116 = tested on: HCT-116
# SNB-75 = tested on: SNB-75
# NCI-H522 = tested on: NCI-H522
# SNB-19 = tested on: SNB-19
# SK-MEL-28 = tested on: SK-MEL-28
# DLD-1 = tested on: DLD-1
# SF-539 = tested on: SF-539
# SNB-78 = tested on: SNB-78
# NCI-H23 = tested on: NCI-H23
# HOP-62 = tested on: HOP-62
# OVCAR-4 = tested on: OVCAR-4
# SN12C = tested on: SN12C
# U-251 = tested on: U-251
# NCI-H460 = tested on: NCI-H460
# HL-60 = tested on: HL-60
# RXF 393 = tested on: RXF 393
# CCRF-CEM = tested on: CCRF-CEM
# MOLT-4 = tested on: MOLT-4
# 786-0 = tested on: 786-0
# LXFL 529 = tested on: LXFL 529
# KM-20L2 = tested on: KM-20L2
# NCI-H226 = tested on: NCI-H226
# LOX IMVI = tested on: LOX IMVI
# M14 = tested on: M14
# K562 = tested on: K562
# RPMI-8226 = tested on: RPMI-8226
# HCC 2998 = tested on: HCC 2998
# HCT-15 = tested on: HCT-15
# UACC-257 = tested on: UACC-257
# SW-620 = tested on: SW-620
# MDA-MB-231 = tested on: MDA-MB-231
# SK-OV-3 = tested on: SK-OV-3
# T47D = tested on: T47D
# EKVX = tested on: EKVX
# OVCAR-3 = tested on: OVCAR-3
# IGROV-1 = tested on: IGROV-1
# SF-268 = tested on: SF-268
# BT-549 = tested on: BT-549
# CAKI-1 = tested on: CAKI-1
# SF-295 = tested on: SF-295
# SK-MEL-2 = tested on: SK-MEL-2
# NCI/ADR-RES = tested on: NCI/ADR-RES
# HT-29 = tested on: HT-29
# MDA-MB-435 = tested on: MDA-MB-435
# KM12 = tested on: KM12
# MCF7 = tested on: MCF7
# PC-3 = tested on: PC-3
# SR = tested on: SR
# TK-10 = tested on: TK-10
# A498 = tested on: A498
# A549 = tested on: A549
# Malme-3M = tested on: Malme-3M
# SK-MEL-5 = tested on: SK-MEL-5
# MDA-N = tested on: MDA-N
# ACHN = tested on: ACHN
# DU-145 = tested on: DU-145
# UO-31 = tested on: UO-31
# OVCAR-8 = tested on: OVCAR-8
# OVCAR-5 = tested on: OVCAR-5
# COLO 205 = tested on: COLO 205
# Hs-578T = tested on: Hs-578T
# HOP-92 = tested on: HOP-92
# UACC-62 = tested on: UACC-62
structure (smiles),measurement,setting,value
Cc1cnc(-c2ccccc2)o1,GI50,DMS-273,52600 nM (inactive)
same,GI50,HCT-116,> 100000 nM (inactive)
same,GI50,SNB-75,> 100000 nM (inactive)
same,GI50,NCI-H522,> 100000 nM (inactive)
same,GI50,SNB-19,> 100000 nM (inactive)
same,GI50,SK-MEL-28,> 100000 nM (inactive)
same,GI50,DLD-1,> 100000 nM (inactive)
same,GI50,SF-539,> 100000 nM (inactive)
same,GI50,SNB-78,> 100000 nM (inactive)
same,GI50,NCI-H23,> 100000 nM (inactive)
same,GI50,HOP-62,> 100000 nM (inactive)
same,GI50,OVCAR-4,> 100000 nM (inactive)
same,GI50,SN12C,> 10000 nM (inactive)
same,GI50,U-251,> 100000 nM (inactive)
same,GI50,NCI-H460,> 100000 nM (inactive)
same,GI50,HL-60,> 100000 nM (inactive)
same,GI50,RXF 393,> 100000 nM (inactive)
same,GI50,CCRF-CEM,> 100000 nM (inactive)
same,GI50,MOLT-4,> 100000 nM (inactive)
same,GI50,786-0,> 100000 nM (inactive)
same,GI50,LXFL 529,> 100000 nM (inactive)
same,GI50,KM-20L2,> 100000 nM (inactive)
same,GI50,NCI-H226,> 100000 nM (inactive)
same,GI50,LOX IMVI,> 100000 nM (inactive)
same,GI50,M14,> 100000 nM (inactive)
same,GI50,K562,> 100000 nM (inactive)
same,GI50,RPMI-8226,> 100000 nM (inactive)
same,GI50,HCC 2998,> 100000 nM (inactive)
Cc1cc(C)c2c(=N)c3ccccc3n(CCCCCCn3c4ccccc4c(=N)c4c(C)cc(C)nc43)c2n1,GI50,HCT-116,180 nM (active)
same,GI50,HCT-15,181 nM
same,GI50,SNB-75,628 nM (active)
same,GI50,UACC-257,1640 nM (inactive)
same,GI50,SW-620,209 nM (active)
same,GI50,NCI-H522,1390 nM (inactive)
same,GI50,MDA-MB-231,447 nM (active)
same,GI50,SNB-19,767 nM (active)
same,GI50,SK-OV-3,1620 nM (inactive)
same,GI50,T47D,1920 nM (inactive)
same,GI50,SK-MEL-28,1280 nM (inactive)
same,GI50,SF-539,1540 nM (inactive)
same,GI50,NCI-H23,1400 nM (inactive)
same,GI50,EKVX,1770 nM (inactive)
same,GI50,OVCAR-3,1660 nM (inactive)
same,GI50,IGROV-1,1440 nM (inactive)
same,GI50,SF-268,1560 nM (inactive)
same,GI50,HOP-62,598 nM (active)
same,GI50,BT-549,1560 nM (inactive)
same,GI50,CAKI-1,1450 nM (inactive)
same,GI50,OVCAR-4,1430 nM (inactive)
same,GI50,SF-295,1360 nM (inactive)
same,GI50,SN12C,1500 nM (inactive)
same,GI50,U-251,252 nM (active)
same,GI50,SK-MEL-2,1660 nM (inactive)
same,GI50,NCI/ADR-RES,1420 nM (inactive)
same,GI50,NCI-H460,859 nM (active)
same,GI50,HT-29,462 nM (active)
same,GI50,MDA-MB-435,1770 nM (inactive)
same,GI50,KM12,346 nM (active)
same,GI50,HL-60,280 nM (active)
same,GI50,MCF7,435 nM (active)
same,GI50,PC-3,1280 nM (inactive)
same,GI50,SR,197 nM (active)
same,GI50,TK-10,1640 nM (inactive)
same,GI50,A498,1730 nM (inactive)
same,GI50,A549,1630 nM (inactive)
same,GI50,Malme-3M,1630 nM (inactive)
same,GI50,RXF 393,1250 nM (inactive)
same,GI50,CCRF-CEM,266 nM (active)
same,GI50,SK-MEL-5,1840 nM (inactive)
same,GI50,MOLT-4,627 nM (active)
same,GI50,786-0,224 nM (active)
same,GI50,MDA-N,1780 nM (inactive)
same,GI50,NCI-H226,1660 nM (inactive)
same,GI50,ACHN,1550 nM (inactive)
same,GI50,LOX IMVI,182 nM (active)
same,GI50,DU-145,1740 nM (inactive)
same,GI50,M14,1850 nM (inactive)
same,GI50,UO-31,1560 nM (inactive)
same,GI50,OVCAR-8,1680 nM (inactive)
same,GI50,OVCAR-5,1840 nM (inactive)
same,GI50,K562,300 nM (active)
same,GI50,COLO 205,1570 nM (inactive)
same,GI50,Hs-578T,1660 nM (inactive)
same,GI50,RPMI-8226,305 nM (active)
same,GI50,HOP-92,1580 nM (inactive)
same,GI50,UACC-62,1770 nM (inactive)
same,GI50,HCC 2998,172 nM (active)
